Source: patent EP2607478A1, “Phenanthroline treated MSC” (Universiteit Twente, priority 2011, dated 2013)
Where a name gives a salt, the structure may show the parent alone.

Test system: MSCs
Test: Gene expression analysis by real-time qPCR in treated MSCs
Type: cell-based, Human
Settings: primary MSCs, 1 nM, 10 nM and 1 uM, 2 days, qPCR (Figure 7)
Procedure: MSCs were seeded in triplicate in 6-well plates at 5000 cells/cm^2 and allowed to attach for 10-15 hours in proliferation medium. Upon reaching near confluency, cells were treated as described above. After 2 days of treatment and 2 subsequent days of incubation with fresh medium, cells were lysed immediately with TRIzol. RNA was isolated using a Bioke RNA II nucleospin RNA isolation kit (Machery Nagel) and RNA concentrations were measured using an ND100 spectrophotometer (Nanodrop technologies, USA). cDNA was synthesized from 100 ng of RNA, using iScript (BioRad) according to the manufacturer's protocol. For qualitative PCR, a master mix, containing distilled water, forward primer, reverse primer (Sigma Genosys), BSA, and SYBR green I mix (all from Invitrogen) was prepared. Real-time qPCR was performed in a Light-Cycler (Roche). Light-Cycler data was analyzed using the fit points method of Light-Cycler software. The baseline was set at the lower log-linear part above baseline noise and the crossing […] (Ct value) was determined. Ct values were normalized to the 18S housekeeping gene and delta Ct (Ct, control ― Ct, sample) was used to calculate the upregulation in gene expression (53).

CCN(CC)CCCC(C)Nc1c2ccc(Cl)cc2nc2ccc(OC)cc12 (stereo not shown) [Quinacrine hydrochloride] was tested. Which VEGF gene expression did it give?
The VEGF gene expression was “does not affect VEGF gene expression”.
